Laboratory results: publication PMC12564265, “Navigating the Deep Eutectic Solvent Landscape: Experimental and Machine Learning Solubility Explorations of Syringic, p-Coumaric, and Caffeic Acids” (International Journal of Molecular Sciences, 2025)

Assays:
[1] = Shake-flask solubility with spectrophotometric measurement in aqueous DES mixtures; assay type: physicochemical
Protocol: (§1) In order to determine the solubility of the three studied phenolic acids in deep eutectic solvents, a very well-established shake-flask method coupled with spectrophotometric measurements was utilized. The initial procedure involved the preparation of various DESs, which was conducted by mixing their HBA and HBD counterparts in a glass vessel and heating the composition until the formation of a transparent, uniform liquid. […] For additional measurements, the DESs were mixed with water in varying proportions, creating aqueous DES systems. Saturated solutions of CAF, SYR, and COU were obtained by adding excess amounts of these compounds to test tubes containing either a neat deep eutectic solvent or its aqueous solution. Such samples were placed in the Orbital Shaker Incubator ES-20/60 from Biosan (Riga, Latvia) and heated for 24 h at 25 °C, 30 °C, 35 °C, and 40 °C (±0.1 °C) with simultaneous mixing at 60 rpm. Before measurements, the samples were filtered using a PTFE syringe filter from Qpore (Dallas, TX, USA) with a 0.22 μm pore size. In order to avoid possible precipitation of the saturated solutions at decreased temperatures, the test tubes, syringes, pipette tips, and filters were kept at a temperature identical to that of the samples. The spectrophotometric measurements required the preparation of calibration curves for the three APIs. This involved the preparation of a stock solution of each compound in methanol, which was later successfully diluted, and the obtained solutions of varying concentrations were measured using an A360 spectrophotometer from AOE Instruments (Shanghai, China). The wavelength range was set to 200-500 nm, and the resolution was 1 nm. The analytical wavelengths were determined to be 324 nm for caffeic acid, 273 nm for syringic acid, and 308 nm for p-coumaric acid. The final regression equations, obtained after averaging three distinct sets of measurements, are collected in Table 2 together with determination coefficients and limits of detection (LOD) and quantification (LOQ) for the calibration curves. The measurements of the samples were conducted with the same spectrophotometer and identical settings. Methanol was used for the dilution of the samples so that they could remain within the linearity range of the method. Complete spectra of the samples were recorded, but for the solubility determination, the absorbance values at a specific analytical wavelength were considered. These values were combined with the corresponding regression equations of the calibration curves and served for the calculation of the concentration of the three phenolic acids in the studied samples. The densities of such samples were also measured, and for this task 1 mL of each sample was weighed to a precision of 0.1 mg using an AS 110 R2.PLUS analytical balance from […] (Radom, Poland). The obtained densities enabled the calculation of mole fractions of CAF, SYR, and COU dissolved in the studied DESs. For each considered system, three distinct measurements were conducted, and the results were averaged.

[2] = Shake-flask solubility with spectrophotometric measurement in neat deep eutectic solvents; assay type: physicochemical
Protocol: as §1

SMILES: COc1cc(C(=O)O)cc(OC)c1O [syringic acid, 4-hydroxy-3,5-dimethoxybenzoic acid]
- Mole fraction solubility ([1]; ChCl – TEG 1:2 + water, x*DES 0.3, 40°C): 0.0476±0.0003 mole fraction
- Mole fraction solubility ([1]; ChCl – TEG 1:2 + water, x*DES 0.4, 25°C): 0.0254±0.0003 mole fraction
- Mole fraction solubility ([1]; ChCl – TEG 1:2 + water, x*DES 0.4, 30°C): 0.0347±0.0004 mole fraction
- Mole fraction solubility ([1]; ChCl – TEG 1:2 + water, x*DES 0.4, 35°C): 0.0466±0.0004 mole fraction
- Mole fraction solubility ([1]; ChCl – TEG 1:2 + water, x*DES 0.4, 40°C): 0.0643±0.0006 mole fraction
- Mole fraction solubility ([1]; ChCl – TEG 1:2 + water, x*DES 0.5, 25°C): 0.0324±0.0002 mole fraction
- Mole fraction solubility ([1]; ChCl – TEG 1:2 + water, x*DES 0.5, 30°C): 0.0446±0.0004 mole fraction
- Mole fraction solubility ([1]; ChCl – TEG 1:2 + water, x*DES 0.5, 35°C): 0.0618±0.0006 mole fraction
- Mole fraction solubility ([1]; ChCl – TEG 1:2 + water, x*DES 0.5, 40°C): 0.0822±0.0010 mole fraction
- Mole fraction solubility ([1]; ChCl – TEG 1:2 + water, x*DES 0.6, 25°C): 0.0401±0.0004 mole fraction
- Mole fraction solubility ([1]; ChCl – TEG 1:2 + water, x*DES 0.6, 30°C): 0.0524±0.0005 mole fraction
- Mole fraction solubility ([1]; ChCl – TEG 1:2 + water, x*DES 0.6, 35°C): 0.0731±0.0007 mole fraction
- Mole fraction solubility ([1]; ChCl – TEG 1:2 + water, x*DES 0.6, 40°C): 0.0992±0.0012 mole fraction
- Mole fraction solubility ([1]; ChCl – TEG 1:2 + water, x*DES 0.7, 25°C): 0.0475±0.0003 mole fraction
- Mole fraction solubility ([1]; ChCl – TEG 1:2 + water, x*DES 0.7, 30°C): 0.0628±0.0004 mole fraction
- Mole fraction solubility ([1]; ChCl – TEG 1:2 + water, x*DES 0.7, 35°C): 0.0871±0.0005 mole fraction
- Mole fraction solubility ([1]; ChCl – TEG 1:2 + water, x*DES 0.7, 40°C): 0.1214±0.0012 mole fraction
- Mole fraction solubility ([1]; ChCl – TEG 1:2 + water, x*DES 0.8, 25°C): 0.0541±0.0003 mole fraction
- Mole fraction solubility ([1]; ChCl – TEG 1:2 + water, x*DES 0.8, 30°C): 0.0699±0.0006 mole fraction
- Mole fraction solubility ([1]; ChCl – TEG 1:2 + water, x*DES 0.8, 35°C): 0.1009±0.0006 mole fraction
- Mole fraction solubility ([1]; ChCl – TEG 1:2 + water, x*DES 0.8, 40°C): 0.1351±0.0013 mole fraction
- Mole fraction solubility ([1]; ChCl – TEG 1:2 + water, x*DES 0.9, 25°C): 0.0550 mole fraction
- Mole fraction solubility ([1]; ChCl – TEG 1:2 + water, x*DES 0.9, 25°C, listed as syryngic acid): 0.0550±0.0005 mole fraction
- Mole fraction solubility ([1]; ChCl – TEG 1:2 + water, x*DES 0.9, 30°C): 0.0718±0.0005 mole fraction
- Mole fraction solubility ([1]; ChCl – TEG 1:2 + water, x*DES 0.9, 35°C): 0.1018±0.0008 mole fraction
- Mole fraction solubility ([1]; ChCl – TEG 1:2 + water, x*DES 0.9, 40°C): 0.1373±0.0011 mole fraction
- Mole fraction solubility ([1]; ChCl – TEG 1:2, x*DES 1.0 (neat DES), 25°C): 0.0515±0.0004 mole fraction
- Mole fraction solubility ([1]; ChCl – TEG 1:2, x*DES 1.0 (neat DES), 30°C): 0.0660±0.0003 mole fraction
- Mole fraction solubility ([1]; ChCl – TEG 1:2, x*DES 1.0 (neat DES), 35°C): 0.0917±0.0006 mole fraction
- Mole fraction solubility ([1]; ChCl – TEG 1:2, x*DES 1.0 (neat DES), 40°C): 0.1234±0.0013 mole fraction
- Increase in the solubility compared to the neat DES ([1]; ChCl-TEG 1:2, x*DES = 0.9 (xwater = 0.1), 25 °C): 7%
- Solubility increase between 25 °C and 40 °C ([1]; neat DES (x*DES = 1.0) involving betaine (Bet-TEG 1:2)): 164%
- Solubility increase between 25 °C and 40 °C ([1]; neat DES (x*DES = 1.0) with choline chloride (ChCl-TEG 1:2)): 240%
- Mole fraction solubility ([2]; neat DES Bet - DEG, HBA:HBD molar ratio 1:1, 25 °C): 0.0235±0.0003 mole fraction
- Mole fraction solubility ([2]; neat DES Bet - DEG, HBA:HBD molar ratio 1:2, 25 °C): 0.0311±0.0002 mole fraction
- Mole fraction solubility ([2]; neat DES Bet - DEG, HBA:HBD molar ratio 1:4, 25 °C): 0.0283±0.0003 mole fraction
- Mole fraction solubility ([2]; neat DES Bet - ETG, HBA:HBD molar ratio 1:1, 25 °C): 0.0132±0.0001 mole fraction
- Mole fraction solubility ([2]; neat DES Bet - ETG, HBA:HBD molar ratio 1:2, 25 °C): 0.0274±0.0002 mole fraction
- Mole fraction solubility ([2]; neat DES Bet - ETG, HBA:HBD molar ratio 1:4, 25 °C): 0.0205±0.0002 mole fraction
- Mole fraction solubility ([2]; neat DES Bet - GLY, HBA:HBD molar ratio 1:1, 25 °C): 0.0203±0.0002 mole fraction
- Mole fraction solubility ([2]; neat DES Bet - GLY, HBA:HBD molar ratio 1:2, 25 °C): 0.0358±0.0003 mole fraction
- Mole fraction solubility ([2]; neat DES Bet - GLY, HBA:HBD molar ratio 1:4, 25 °C): 0.0300±0.0002 mole fraction
- Mole fraction solubility ([2]; neat DES Bet - TEG, HBA:HBD molar ratio 1:1, 25 °C): 0.0317±0.0003 mole fraction
- Mole fraction solubility ([2]; neat DES Bet - TEG, HBA:HBD molar ratio 1:2, 25 °C): 0.0474 mole fraction
- Mole fraction solubility ([2]; neat DES Bet - TEG, HBA:HBD molar ratio 1:2, 25 °C, listed as syryngic acid): 0.0474±0.0003 mole fraction
- Mole fraction solubility ([2]; neat DES Bet - TEG, HBA:HBD molar ratio 1:4, 25 °C): 0.0388±0.0003 mole fraction
- Mole fraction solubility ([2]; neat DES ChCl - DEG, HBA:HBD molar ratio 1:1, 25 °C): 0.0230±0.0004 mole fraction
- Mole fraction solubility ([2]; neat DES ChCl - DEG, HBA:HBD molar ratio 1:2, 25 °C): 0.0465±0.0004 mole fraction
- Mole fraction solubility ([2]; neat DES ChCl - ETG, HBA:HBD molar ratio 1:1, 25 °C): 0.0186±0.0002 mole fraction
- Mole fraction solubility ([2]; neat DES ChCl - ETG, HBA:HBD molar ratio 1:2, 25 °C): 0.0304±0.0002 mole fraction
- Mole fraction solubility ([2]; neat DES ChCl - ETG, HBA:HBD molar ratio 1:4, 25 °C): 0.0244±0.0002 mole fraction
- Mole fraction solubility ([2]; neat DES ChCl - TEG, HBA:HBD molar ratio 1:2, 25 °C): 0.0515 mole fraction
